Test results: US8765707B2, “MicroRNA-140-5p as a tumor suppressor and sensitizing agent for chemotherapy” (University of Houston System, priority 2011, dated 2014)
Entries after “also recorded” stand apart in the source; their conditions may differ.

Columns and labels:
MYCN = MYCN induction in conditional MYCN3 cell line (QPCR); format: cell-based; details: 1 ug/ml doxorubicin
Protocol: In FIG. 1 using a conditional MYCN cells line MYCN3, neuroblastoma patients with high and low MYCN were simulated. […] Induced MYCN is functional as shown by alteration in cell cycle distribution 24 hours after exposure to doxorubicin. Chip-PCR results for E-boxes of two known MYCN target genes MIR17HG and MDM2 confirming the specificity of the immunoprecipitation and relative enrichment for MYCN target gene promoters.

[1] = tested on: CHLA255 neuroblastoma cell line; assay: MTT proliferation assay in CHLA255 neuroblastoma cells; format: cell-based; details: CHLA255 stable cell line expressing microRNA with GFP, compared to control cells
Protocol: (§1) […] sequences (SEQ ID NOS: 3-4), which mimic miR-140-5p wildtype (SEQ ID NO: 1) and mutant miR-140-5p (SEQ ID NO: 2), were transfected into CHLA255 neuroblastoma cell line upper-GFP vector. Table 1 identifies the nucleotide sequences of the wildtype and mutant microRNAs and their mimics. The altered nucleotides in the mutant sequences are shown in bold.
(§2) The impact of these sequences on these cells was measured by increase in absorbance from the MTT assay (FIG. 2A) and the ability to form colonies on a soft agar plate in a clonogenicity assay (FIG. 2B). Stable cell line expression of microRNAs with GFP were compared to control cells. […] Colony formation assays were carried out in soft agar-representative wells showing colony growth at 10 days. Colonies were stained and counted by eye or by digital image analysis software.

[2] = tested on: CHLA-255 neuroblastoma tumors; assay: In vivo orthotopic xenograft model of neuroblastoma; set-up: species or system mouse; details: tumors over-expressing miR-140-5p vs control CHLA-255; Kruskal-Wallis p<0.01; n=9
Excerpt: FIG. 3 illustrates the impact of miR-140-5p on in vivo orthotopic xenograft model of neuroblastoma. *Kruskal-Wallis method p<0.01; mean±SEM; n=9 in miR-140-5p cohort, n=10 in all other cohorts. Using the contralateral kidney (*) for comparison the average tumor weight for each cohort+SEM.

[3] = tested on: CHLA255 neuroblastoma cell line; assay: Soft agar colony formation (clonogenicity) assay; format: cell-based; details: CHLA255, colony growth at 10 days, triplicate experiments
Protocol: as §1, §2

Molecule: COc1cccc2c1C(=O)c1c(O)c3c(c(O)c1C2=O)C[C@@](O)(C(=O)CO)C[C@@H]3O[C@H]1C[C@H](N)[C@H](O)[C@H](C)O1 [doxorubicin]
- Increase in MYCN mRNA message level (MYCN): 20 fold

Molecule: miR-140-5p: SEQ ID NO: 1, CAGUGGUUUUACCCUAUGGUAG (listed as RNA, chemistry not given here)
- Proliferation as measured by increase in absorbance from MTT assay [1]: consistently decrease the proliferation rates; also recorded: significantly decreases the proliferation
- Average tumor weight [2]: significantly smaller than control; also recorded: significantly suppresses in vivo tumor growth and burden
- Colony counts in soft agar [3]: significantly decrease colonies
